Data set [1] has as its system Human immunodeficiency virus type 1 reverse transcriptase (Human immunodeficiency virus 1), Q72547 [L100I].
Data set [2] has as its system Human immunodeficiency virus 1. The experiment in a line: Antiviral activity against HIV 1 harboring reverse transcriptase Y181C mutant infected in human MT4 cells assessed as inhibition of virus-induced cytopathic effect after 5 days by MTT assay. The data set is classed as functional, organism-based. The settings on record: Human immunodeficiency virus 1, MT4, 120 h. On the technique in general: Protection from cytopathic effect is a common read-out in antiviral testing.

Data set [3] addresses Human immunodeficiency virus type 1 reverse transcriptase (Human immunodeficiency virus 1) (UniProt Q72547).
Description: Inhibition of recombinant wild type HIV-1 His-tagged reverse transcriptase p66/p51 expressed in Escherichia coli assessed as reduction in [3H]dTTP incorporation using poly(rA)/oligo(dT) as template/primer after 20 mins by scintillation counting analysis
The subject of data set [4] is Human immunodeficiency virus 1. The experiment in a line: Resistance index, ratio of ID50 for recombinant HIV-1 His-tagged reverse transcriptase p66/p51 L100I mutant to ID50 for recombinant wild type HIV-1 reverse transcriptase His-tagged p66/p51.
The nature of data set [5]: Cytotoxicity against human MT4 cells assessed as reduction in cell viability after 5 days by MTT assay. The data set is classed as cell-based. In general terms: Tetrazolium dyes change colour on reduction, which living cells bring about.
Data set [6] concerns Human immunodeficiency virus 1. The experiment in a line: Resistance index, ratio of ID50 for recombinant HIV-1 His-tagged reverse transcriptase p66/p51 Y181I mutant to ID50 for recombinant wild type HIV-1 reverse transcriptase His-tagged p66/p51.
The test system of data set [7] is Human immunodeficiency virus type 1 reverse transcriptase (Human immunodeficiency virus 1), Q72547 [K103N].
Description: Inhibition of recombinant HIV-1 His-tagged reverse transcriptase p66/p51 K103N mutant expressed in Escherichia coli assessed as reduction in [3H]dTTP incorporation using poly(rA)/oligo(dT) as template/primer after 20 mins by scintillation counting analysis
For data set [8], the system named is Human immunodeficiency virus 1. The experiment in a line: Antiviral activity against HIV-1 harboring reverse transcriptase Y188L mutant infected in human MT4 cells assessed as inhibition of virus-induced cytopathic effect after 5 days by MTT assay. The data set is classed as functional, organism-based. The conditions noted are these: Human immunodeficiency virus 1, MT4, 120 h.

Data set [9] relates to Human immunodeficiency virus 1. The data set can be described thus: Antiviral activity against wild type HIV 1 NL4-3 infected in human MT4 cells assessed as inhibition of virus-induced cytopathic effect after 5 days by MTT assay. The conditions noted are these: Human immunodeficiency virus 1, NL4-3, MT4, 120 h. The data set is classed as functional, organism-based.
The nature of data set [10]: Therapeutic index, ratio of CC50 for human MT4 cells to EC50 for HIV-1 NL4-3 infected in human MT4 cells. The data set is classed as toxicity, cell-based. The conditions noted are these: read-out: Ratio CC50/EC50.
The subject of data set [11] is Human immunodeficiency virus 1. The data set can be described thus: Antiviral activity against HIV-1 IRLL98 harboring reverse transcriptase M41L, D67N, Y181C, M184V, R211K, and T215Y mutants infected in human MT4 cells assessed as inhibition of virus-induced cytopathic effect after 5 days by MTT assay. The settings on record: Human immunodeficiency virus 1, IRLL98, MT4, 120 h. The data set is classed as functional, organism-based.

In data set [12] the test system is Human immunodeficiency virus 1. The experiment in a line: Resistance index, ratio of EC50 for HIV-1 harboring reverse transcriptase K103N/Y181C double mutant to EC50 for wild type HIV-1 NL4-3. The data set is classed as functional.
Data set [13] concerns Human immunodeficiency virus type 1 reverse transcriptase (Human immunodeficiency virus 1), Q72547 [Y181I].
Data set [14] has as its system Human immunodeficiency virus 1. The experiment in a line: Antiviral activity against HIV-1 harboring reverse transcriptase K103N mutant infected in human MT4 cells assessed as inhibition of virus-induced cytopathic effect after 5 days by MTT assay. The data set is classed as functional, organism-based. The conditions noted are these: Human immunodeficiency virus 1, MT4, 120 h.

Data set [15] concerns Human immunodeficiency virus 1. The data set can be described thus: Resistance index, ratio of EC50 for HIV-1 harboring reverse transcriptase K103N mutant to EC50 for wild type HIV-1 NL4-3. The data set is classed as functional.
Data set [16] concerns Human immunodeficiency virus 1. The experiment in a line: Resistance index, ratio of EC50 for HIV-1 IRLL98 harboring reverse transcriptase M41L, D67N, Y181C, M184V, R211K, and T215Y mutants to EC50 for wild type HIV-1 NL4-3. The data set is classed as functional.
Data set [17] relates to Human immunodeficiency virus 1. The experiment in a line: Resistance index, ratio of EC50 for HIV-1 harboring reverse transcriptase Y181C mutant to EC50 for wild type HIV-1 NL4-3. The data set is classed as functional.
For data set [18], the system named is Human immunodeficiency virus 1. The data set can be described thus: Resistance index, ratio of EC50 for HIV-1 harboring reverse transcriptase Y188L mutant to EC50 for wild type HIV-1 NL4-3. The data set is classed as functional.
Data set [19] deals with Human immunodeficiency virus 1. The experiment in a line: Antiviral activity against HIV-1 harboring reverse transcriptase K103N/Y181C double mutant infected in human MT4 cells assessed as inhibition of virus-induced cytopathic effect after 5 days by MTT assay. The data set is classed as functional, organism-based. The settings on record: Human immunodeficiency virus 1, MT4, 120 h.

Data set [20] has as its system Human immunodeficiency virus 1. The experiment in a line: Resistance index, ratio of ID50 for recombinant HIV-1 His-tagged reverse transcriptase p66/p51 K103N mutant to ID50 for recombinant wild type HIV-1 reverse transcriptase His-tagged p66/p51.
Data set [21] relates to Human immunodeficiency virus 1. The experiment in a line: Potency index, ratio of TMC120 EC50 to compound EC50 for HIV-1 IRLL98 harboring reverse transcriptase M41L, D67N, Y181C, M184V, R211K, and T215Y mutants infected in human MT4 cells. The data set is classed as functional.
The subject of data set [22] is Human immunodeficiency virus 1. The data set can be described thus: Potency index, ratio of EFV EC50 to compound EC50 for HIV-1 IRLL98 harboring reverse transcriptase M41L, D67N, Y181C, M184V, R211K, and T215Y mutants infected in human MT4 cells. The data set is classed as functional.
Data set [23] relates to Human immunodeficiency virus 1. The data set can be described thus: Potency index, ratio of EFV EC50 to compound EC50 for HIV-1 harboring reverse transcriptase K103N/Y181C double mutant infected in human MT4 cells. The data set is classed as functional.

pEC50: −log10 of the molar value.

Data on five compounds can be found in ChEMBL document CHEMBL4371047, “Effect of α-Methoxy Substitution on the Anti-HIV Activity of Dihydropyrimidin-4(3 H)-ones” (J Med Chem, 2019).

The term pEC50 denotes the EC50 on a negative log10 scale, so that one unit is a factor of ten. One may read the CC50 as the concentration that lowers cell viability or growth by half.

Regarding `Cc1c(C(C)c2c(F)cccc2F)nc(NC2CCCC2)[nH]c1=O` (stereo unspecified), the ID50 in data set [1] is 500 nM; in [3], 30 nM; in [7] it was 380 nM; in data set [13], 1700 nM. For the same compound, the pEC50 in data set [2] was 6.66; in [8] it was 6.02; in [9] it was 7.60; in data set [11], 7.07; in [14], 6.39; in data set [19] it was 6.38. The figures for the Ratio in data set [4] and in data set [6] were 17 and 57, respectively. Moreover, the CC50 at 120 h in [5] was 90000 nM. In addition, the selectivity ratio in data set [10] was determined as 3600. In addition, the “Ratio EC50” value in data set [12] stood at 17; in [15], 16; in data set [16] it was 3; in data set [17], 9; in [18] it was 38.
In the case of `COC(c1nc(NC2CCCC2)[nH]c(=O)c1C)c1c(F)cccc1F` (stereo unspecified), the ID50 was determined as 350 nM in data set [1], 15 nM in data set [3], 39 nM in data set [7] and 850 nM in data set [13]. Moreover, the pEC50 in data set [2] was 7.12 to 7.16; in data set [8], 6.13 to 6.15; in data set [9] it was 9.05 to 9.10; in [11] it was 8.70; in data set [14], 8.22 to 8.30; in [19], 7.11. In addition, the Ratio in data set [4] amounted to 23; in data set [6], 57; in data set [20], 3. The CC50 at 120 h in [5] turned out to be 74600 nM. In data set [10], the selectivity ratio lay within 82900 to 93200. In addition, the “Ratio EC50” value in data set [21] was 3 - 10; in [12], 85; in data set [15], 6 - 7; in [16] it was 2; in data set [17], 83 - 86; in data set [18] it was 822 - 875. Moreover, the “Ratio EC50” value in data set [22] is 2000 - 3000; in data set [23], 5 - 15.
For the compound `CCCN(C)c1nc(C(OC)c2c(Cl)cccc2Cl)c(C)c(=O)[nH]1` (stereo unspecified), the ID50 in data set [1] is 340 to 420 nM; in data set [3] it was 16 to 18 nM; in data set [7], 38 to 42 nM; in [13], 740 to 840 nM. The pEC50 in [2] was 7.85 to 7.96; in data set [8], 7.46 to 7.52; in [9], 9.00 to 9.05; in data set [11] it was 8.70; in [14] it was 8.15 to 8.22; in data set [19] it was 7.51. Further, the Ratio in data set [4] is 21 to 23; in data set [6], 46 to 47; in data set [20] it was 2. The CC50 at 120 h in data set [5] worked out at 70800 nM. Also, in [10], the selectivity ratio lay within 70800 to 78700. The “Ratio EC50” value is on record as 3 - 10 in data set [21]; 34 in data set [12]; 7 in [15]; 2 in data set [16]; 11 - 16 in data set [17]; 30 - 39 in [18]. For the same compound, the “Ratio EC50” value was 2000 - 3000 in [22] and 5 - 15 in data set [23].
For the compound `CCC(C)Sc1nc(C(OC)c2c(F)cccc2Cl)c(C)c(=O)[nH]1` (stereo unspecified), the ID50 in [1] was 120 nM; in data set [3] it was 0.9 nM; in data set [7], 12 nM; in data set [13] it was 640 nM. For the same compound, the pEC50 in data set [2] is 7.57; in data set [8] it was 7.26; in data set [9] it was 9.70; in data set [11], 9.22; in data set [14] it was 9.00; in data set [19], 7.55. Besides, the Ratio in data set [4] is 133; in [6], 711; in [20], 13. Besides, the CC50 at 120 h in data set [5] was 52800 nM. For the same compound, the selectivity ratio in data set [10] stood at 264000. Also, the “Ratio EC50” value was 3 - 10 in data set [21]; 140 in data set [12]; 5 in [15]; 3 in data set [16]; 135 in data set [17]; 275 in data set [18]. Further, the “Ratio EC50” value in data set [22] was 2000 - 3000; in [23] it was 5 - 15.
Regarding `COC(c1nc(SC(C)C)[nH]c(=O)c1C)c1c(F)cccc1Cl` (stereo unspecified), the ID50 was 900 to 950 nM in data set [1], 4 to 5 nM in [3], 81 to 89 nM in data set [7] and 1500 to 1600 nM in [13]. The pEC50 in [2] was 7.35 to 7.60; in [8], 7.14 to 7.28; in data set [9], 9.30 to 9.52; in [11], 9.00; in data set [14] it was 8.10 to 8.22; in [19], 7.34. Moreover, the Ratio in data set [4] was 190 to 225; in data set [6], 320 to 375; in data set [20], 18 to 20. Moreover, the CC50 at 120 h in data set [5] was more than 70000 nM. Besides, in data set [10], the selectivity ratio was 140000 to 233000. In addition, the “Ratio EC50” value is 3 - 10 in [21]; 92 in [12]; 16 - 20 in data set [15]; 2 in [16]; 83 - 90 in data set [17]; 144 - 173 in data set [18]. For the same compound, the “Ratio EC50” value in data set [22] was 2000 - 3000; in data set [23], 5 - 15.
